Measured values as given in patent EP0367447A1, “Human epithelial transforming growth factor” (SMITHKLINE BEECHAM CORPORATION, priority 1988, dated 1990).
Ends that are not written are not given here.

Test system: SW13 cells
Test: growth of SW13 cells in soft agar (colony formation, Halper et al. 1983, modified)
Format: cell-based, human
Settings: qualitative; whether the substance stimulates or mimics the growth response
Experimental: By the term 'anchorage independent growth of SW13 cells in soft agar in an autocrine fashion' is meant that the anchorage independent growth of the SW13 cells in soft agar is stimulated by a growth factor produced by the SW13 cells. Such 'anchorage independent growth of SW13 cells in soft agar is measured by the method described by Halper et al., Cancer Research, 43, 1972-1979 (1983). Preferably such method is modified so that the base and upper layers contain 0.5% and 0.3% agarose, respectively in DMEM, 10% fetal bovine serum, and 5000 cells are plated per 3 cm dish.
h-TGFe activity was measured using growth of SW13 cells in soft agar as described by Halper et al., Cancer Research, 43, 1972-1979 (1983), except that the base and upper layers contained 0.5% and 0.3% agarose, respectively in DMEM, 10% fetal bovine serum, and 5000 cells were plated per 3 cm dish.
Human milk was delipidated by ether extraction and acidified with TFA (0.5% final concentration). The acidified material was filtered through a 0.45 µm membrane and concentrated 5-fold using an Amicon YM5 membrane. The concentrate was dialyzed against 0.05% TFA, lyophilized, reconstituted at 10 times the original concentration and bioassayed on SW13 cells.
Samples of colon carcinoma tissue from patients along with two specimens of normal adjacent colon were obtained at surgery and snap frozen in liquid nitrogen. […]

Substance	colony formation by SW13 cells in the soft agar assay
bombesin	not mimicked
gastrin: Synthetic human gastrin obtained from Sigma (QGPWLEEEEEAYGWMDF; ends and bridges not checked; UniProt P01350 76-92, looked up)	not mimicked
